From the supplement of paper PMC10307832

What was measured:
Assay in all cases: relative viability (nuclei count vs DMSO), 5 days (fraction); higher = more cells survive
[1] = system: NCI-H1437
Procedure, shortened: (§1)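 Lung cancer cell lines in 1536-well plates got either a single drug or a fixed anchor-drug dose together with five library-drug doses (not always all listed) in √10 steps, by pin tool, on the day after seeding. Nuclei were counted after 5 days, and relative viability is the treated-to-vehicle ratio of nuclei counts. Values are medians of duplicate plates.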

[2] = system: A549
Procedure, shortened: as §1

[3] = system: Calu-6
Procedure, shortened: as §1

[4] = system: IA-LM
Procedure, shortened: as §1

[5] = system: NCI-H1703
Procedure, shortened: as §1

[6] = system: NCI-H1355
Procedure, shortened: as §1

[7] = system: LCLC-97TM1
Procedure, shortened: as §1

[8] = system: NCI-H596
Procedure, shortened: as §1

[9] = system: EBC-1
Procedure, shortened: as §1

[10] = system: NCI-H1299
Procedure, shortened: as §1

Work on `CN1CCN(CCOc2cc(OC3CCOCC3)c3c(Nc4c(Cl)ccc5c4OCO5)ncnc3c2)CC1` [Saracatinib] + CS(=O)(=O)N1CCN(Cc2cc3nc(-c4cccc5[nH]ncc45)nc(N4CCOCC4)c3s2)CC1 [Pictilisib] (partner 1 µM) yielded a relative viability ([1]; first compound 0.02 µM) of 0.416, a relative viability ([1]; first compound 0.2 µM) of 0.418 and a relative viability ([1]; first compound 0.6325 µM) of 0.454. The relative viability ([1]; first compound 2 µM) was 0.393, the relative viability ([2]; first compound 0.02 µM) was 0.491 and the relative viability ([2]; first compound 0.2 µM) was 0.412. For the same molecule, the relative viability ([2]; first compound 0.6325 µM) was 0.515, the relative viability ([2]; first compound 2 µM) was 0.399 and the relative viability ([3]; first compound 0.02 µM) was 0.858. The relative viability ([3]; first compound 0.2 µM) was 0.645, the relative viability ([3]; first compound 0.6325 µM) was 0.702 and the relative viability ([3]; first compound 2 µM) was 0.613. The relative viability ([4]; first compound 0.02 µM) was 0.33, the relative viability ([4]; first compound 0.2 µM) was 0.445 and the relative viability ([4]; first compound 0.6325 µM) was 0.515. It also gave a relative viability ([4]; first compound 2 µM) of 0.37, a relative viability ([5]; first compound 0.02 µM) of 0.228 and a relative viability ([5]; first compound 0.2 µM) of 0.242. For the same molecule, the relative viability ([5]; first compound 0.6325 µM) was 0.181, the relative viability ([5]; first compound 2 µM) was 0.203 and the relative viability ([6]; first compound 0.02 µM) was 0.497. The relative viability ([6]; first compound 0.2 µM) was 0.467, the relative viability ([6]; first compound 0.6325 µM) was 0.516 and the relative viability ([6]; first compound 2 µM) was 0.461. For the same molecule, the relative viability ([7]; first compound 0.02 µM) was 0.231, the relative viability ([7]; first compound 0.2 µM) was 0.12 and the relative viability ([7]; first compound 0.6325 µM) was 0.193. It also gave a relative viability ([7]; first compound 2 µM) of 0.186, a relative viability ([8]; first compound 0.02 µM) of 0.218 and a relative viability ([8]; first compound 0.2 µM) of 0.429. It also gave a relative viability ([8]; first compound 0.6325 µM) of 0.435, a relative viability ([8]; first compound 2 µM) of 0.319 and a relative viability ([9]; first compound 0.02 µM) of 0.445. The relative viability ([9]; first compound 0.2 µM) was 0.397, the relative viability ([9]; first compound 0.6325 µM) was 0.387 and the relative viability ([9]; first compound 2 µM) was 0.429. For the same molecule, the relative viability ([10]; first compound 0.02 µM) was 0.69, the relative viability ([10]; first compound 0.2 µM) was 0.528 and the relative viability ([10]; first compound 0.6325 µM) was 0.387. For the same molecule, the relative viability ([10]; first compound 2 µM) was 0.256.

Molecule `Cc1cn(-c2cc(NC(=O)c3ccc(C)c(Nc4nccc(-c5cccnc5)n4)c3)cc(C(F)(F)F)c2)cn1` [Nilotinib] + CS(=O)(=O)N1CCN(Cc2cc3nc(-c4cccc5[nH]ncc45)nc(N4CCOCC4)c3s2)CC1 [Pictilisib] (partner 1 µM) has a relative viability ([1]; first compound 0.001 µM) of 0.381, a relative viability ([1]; first compound 0.003162 µM) of 0.414 and a relative viability ([1]; first compound 0.01 µM) of 0.373. It also gave a relative viability ([1]; first compound 0.03162 µM) of 0.47, a relative viability ([1]; first compound 0.1 µM) of 0.44 and a relative viability ([2]; first compound 0.003162 µM) of 0.743. For the same molecule, the relative viability ([2]; first compound 0.01 µM) was 0.6, the relative viability ([2]; first compound 0.03162 µM) was 0.368 and the relative viability ([2]; first compound 0.1 µM) was 0.374. The relative viability ([3]; first compound 0.001 µM) was 0.893, the relative viability ([3]; first compound 0.003162 µM) was 0.919 and the relative viability ([3]; first compound 0.01 µM) was 1.06. It also gave a relative viability ([3]; first compound 0.03162 µM) of 0.864, a relative viability ([3]; first compound 0.1 µM) of 0.827 and a relative viability ([4]; first compound 0.001 µM) of 0.36. It also gave a relative viability ([4]; first compound 0.003162 µM) of 0.431, a relative viability ([4]; first compound 0.01 µM) of 0.426 and a relative viability ([4]; first compound 0.03162 µM) of 0.209. It also gave a relative viability ([4]; first compound 0.1 µM) of 0.41, a relative viability ([5]; first compound 0.001 µM) of 0.225 and a relative viability ([5]; first compound 0.003162 µM) of 0.291. The relative viability ([5]; first compound 0.01 µM) was 0.19, the relative viability ([5]; first compound 0.03162 µM) was 0.215 and the relative viability ([5]; first compound 0.1 µM) was 0.196. The relative viability ([6]; first compound 0.001 µM) was 0.399, the relative viability ([6]; first compound 0.003162 µM) was 0.468 and the relative viability ([6]; first compound 0.01 µM) was 0.371. The relative viability ([6]; first compound 0.03162 µM) was 0.421, the relative viability ([6]; first compound 0.1 µM) was 0.19 and the relative viability ([7]; first compound 0.001 µM) was 0.184. It also gave a relative viability ([7]; first compound 0.003162 µM) of 0.213, a relative viability ([7]; first compound 0.01 µM) of 0.16 and a relative viability ([7]; first compound 0.03162 µM) of 0.167. It also gave a relative viability ([7]; first compound 0.1 µM) of 0.123, a relative viability ([8]; first compound 0.001 µM) of 0.352 and a relative viability ([8]; first compound 0.003162 µM) of 0.41. For the same molecule, the relative viability ([8]; first compound 0.01 µM) was 0.386, the relative viability ([8]; first compound 0.03162 µM) was 0.393 and the relative viability ([8]; first compound 0.1 µM) was 0.366. The relative viability ([9]; first compound 0.003162 µM) was 0.287, the relative viability ([9]; first compound 0.01 µM) was 0.313 and the relative viability ([9]; first compound 0.03162 µM) was 0.289. It also gave a relative viability ([9]; first compound 0.1 µM) of 0.253, a relative viability ([10]; first compound 0.001 µM) of 0.611 and a relative viability ([10]; first compound 0.003162 µM) of 1.12. It also gave a relative viability ([10]; first compound 0.01 µM) of 0.887, a relative viability ([10]; first compound 0.03162 µM) of 0.495 and a relative viability ([10]; first compound 0.1 µM) of 0.396.
